These are literature values, as cited in patent publication US20150010635A1, “CONTROLLED RELEASE PARTICLES, WOOD TREATMENT AGENT, AND PRODUCING METHOD THEREOF” (Japan EnviroChemicals, Ltd., priority 2011, published 2015).

Read-outs that look alike come from different tables or passages of the source.

On to `CCN(CC)C(=O)c1cccc(C)c1` [DEET, N,N-diethyl-m-toluamide], for which the water solubility (room temperature) is 990 ppm.

With `CCOc1ccc(C(C)(C)COCc2cccc(Oc3ccccc3)c2)cc1` [Ethofenprox, 2-(4-ethoxyphenyl)-2-methylpropyl-3-phenoxybenzylether], the water solubility was 22.5 ppb.

For the compound `CC1(C)C(C=C(Cl)Cl)C1C(=O)OCc1cccc(Oc2ccccc2)c1` (stereo not drawn) [Permethrin, 3-phenoxybenzyl(1RS,3RS;1RS,3SR)-3-(2,2-dichlorovinyl)-2,2-dimethylcyclopropanecarboxylate], the water solubility is given as 6 ppb.

`CCCC1COC(Cn2cncn2)(c2ccc(Cl)cc2Cl)O1` (stereo not shown) [Propiconazole, 1-[2-(2,4-dichlorophenyl)-4-n-propyl-1,3-dioxolane-2-ylmethyl]-1H-1,2,4-triazole]: the water solubility (room temperature) is on record as 110 ppm.
